Key:
[1] = Brain exposure comparison of five radioligands; type: in vivo, human; settings: in vivo
Protocol: Another complicating factor is low delivery to brain (i.e., low drug exposure), which may have cause low brain uptake. We compared five different radioligands from previous studies with regard to exposure to brain (Table 3) and measured the area under the curve of plasma concentration vs. time from 0 to 20 min. […] The effective exposure was thus named because only the free concentration of drug can cross the blood–brain barrier. ^11C-LY2428703 had the highest exposure value among the tracers tested. This high exposure was due to the slow wash-out of the tracer from the vascular compartment and to negligible metabolism in plasma, that is, parent radioligand represented 99% of plasma radioactivity even at the end of the 2-h scanning session.

[2] = system: ABCB1 (P-gp) and ABCG2 (BCRP); assay: Brain PET after blockade of efflux transporters, monkey; type: in vivo, rhesus monkeys (Macaca mulatta)
Protocol: (§1) Four male rhesus monkeys (Macaca mulatta, 11.7 ± 2.9 kg) were imaged in 13 PET scans. Seven scans were performed at baseline, three scans were performed after receptor blocking to calculate nondisplaceable uptake (VND), and three scans were performed after blockade of the efflux transporters at the blood–brain barrier. Receptors were blocked by mixing ^11C-LY2428703 with an mGluR1 antagonist - either nonradioactive LY2428703 (2.0 mg/kg) or LY2332084 (0.5 mg/kg) - in the same syringe. Efflux transporters were blocked in two scans by injecting DCPQ, which selectively blocks the efflux transporter ABCB1 (P-gp), and in one scan by injecting elacridar, which blocks both ABCB1 (P-gp) and ABCG2 (BCRP).
(§2) PET images were acquired using either the high-resolution research tomograph (HRRT) or the FOCUS 220 scanner (Siemens/CPS, Knoxville, TN, USA) for 120 min in 33 frames, with frame durations ranging from 30 s to 5 min, and correcting for attenuation and scatter. About 2 h before the PET scan, anesthesia was initiated with ketamine (10 mg/kg IM) and then maintained with 1% to 3% isoflurane. Electrocardiograph, body temperature, heart rate, and respiration rate were measured throughout the experiment. At baseline, the injected activity was 210 ± 51 MBq (specific activity at time of injection 43.2 ± 25.6 GBq/μmol, mass dose 6.9 ± 4.7 nmol or 0.62 ± 0.35 nmol/kg). Tissue time-activity curves were obtained from semi-automatic regions of interest encompassing the whole cerebellum and the rest of the brain. Brain uptake was expressed as standardized uptake value (SUV). Arterial input function was obtained for eight scans: four at baseline, two after blocking with nonradioactive LY2428703, one after blocking with DCPQ, and one after blocking with elacridar. Blood samples (0.5 mL each) were drawn through a port connected to the femoral artery at 15-s intervals until 2 min, followed by 1-mL samples at 3, 5, 10, 30, 60, 90, and 120 min. The plasma time-activity curve was corrected for the fraction of unchanged radioligand following the procedure detailed above.
(§3) Volumes of distribution (VT) were obtained by nonlinear compartmental analysis. Goodness-of-fit by nonlinear least squares analysis was evaluated using the Akaike Information Criterion (AIC) and Model Selection Criterion (MSC). The most appropriate model is that with the smallest AIC and the largest MSC score. Goodness-of-fit by the compartment models was compared with F statistics. A value of P < 0.05 was considered significant for F statistics. The identifiability of kinetic variables was calculated as standard error obtained from the diagonal of the covariance matrix and expressed as a percentage of the rate constant.

[3] = Plasma free fraction by ultrafiltration, human; type: in vitro ADME; settings: humans, n = 3
Protocol: The plasma free fraction (fp) of ^11C-LY2428703 was measured by ultrafiltration through membrane filters (Centrifree; Millipore, Billerica, MA, USA) as previously described. Briefly, about 740 kBq of ^11C-LY2428703 (approximately 5 μL) was added to 650 μL of plasma. The mixture was incubated at room temperature for 10 min and then processed as described previously. When radioactivities for the filter components were high, they were allowed to decay until they were within the optimal range of the γ-counter. Determining the free fraction during preblocking was done by drawing blood samples after the preblocking treatments were initiated but immediately before administering the radioligand.
PET images were acquired using the GE Advance scanner (GE Healthcare, Milwaukee, WI, USA) for 120 min. An 8-min ^68Ge transmission scan was obtained before the injection of the radiotracer for attenuation correction. The mean injected activity was 328 ± 12 MBq. The specific activity at the time of injection was 87.2 ± 34.7 GBq/μmol, which corresponded to 5.5 ± 2.3 nmol (0.082 ± 0.037 nmol/kg) of carrier. Blood samples (1 mL each) were drawn from the radial artery at 15-s intervals until 150 s, followed by 3-mL samples at 3, 4, 6, 8, 10, 15, 20, 30, 40, and 50 min, and 4.5 mL at 60, 75, 90, and 120 min. The unchanged parent fraction in plasma and fP of ^11C-LY2428703 were determined as described above.

P-gp = system: P-gp; parameters: method as in PMID 23135321; settings: previous in vitro analyses; cited from earlier work
mGluR1 = assay: Brain PET at baseline and after mGluR1 blockade, monkey; type: in vivo, rhesus monkeys (Macaca mulatta)
Protocol: as §1, §2, §3

[4] = room temperature, octanol; cited from earlier work

Brain peak SUV [1]: ~0.5 SUV
Effective exposure (E × fp) [1]: 0.19
VT in cerebellum ([2]; DCPQ experiment: baseline): 4.4 mL/cm^3
VT in cerebellum ([2]; after DCPQ blockade (P-gp)): 4.2 mL/cm^3
VT in cerebellum ([2]; after elacridar blockade (P-gp and BCRP)): 0.8 mL/cm^3
substrate for P-gp or BCRP ([2]; based on pharmacological blockade): not a substrate
VT in cerebellum ([2]; elacridar experiment: baseline): 2.0 mL/cm^3
fp (plasma free fraction) [3]: 0.094%
peak uptake in cerebellum (mGluR1; after mGluR1 blockade): 4.9 ± 0.8 SUV
peak uptake in forebrain (mGluR1; after mGluR1 blockade): 3.6 ± 1.9 SUV
peak uptake in cerebellum (mGluR1; baseline): 3.1 ± 1.4 SUV
peak uptake in cerebellum higher than in forebrain (mGluR1; baseline): about 50%
peak uptake in forebrain (mGluR1; baseline): 2.2 ± 0.8 SUV
time at which cerebellar uptake decreased to 50% of peak (mGluR1; baseline): about 20 min
time of peak uptake in cerebellum (mGluR1; baseline): approximately 2 min
time of peak uptake in forebrain (mGluR1; baseline): approximately 2 min
mean VT (mGluR1; baseline scans, two-tissue compartment model): 3.5 ± 1.0 mL/cm^3
VND (mGluR1; calculated from mGluR1 blocking studies): 4.4 ± 2.9 mL/cm^3
SMILES: Cc1c(-c2ccc(O[11CH3])cc2)nsc1NC(=O)[C@@H]1C[C@H]1C [^11C-LY2428703]
substrate for P-gp (P-gp): not a substrate
LogD [4]: 4.02
